# Entries after “also recorded” stand apart in the source; their conditions may differ.
# Key:
# [1] = test system: primary cortical neuronal cultures; test: In vitro ischemia / oxygen-glucose deprivation (OGD) model, neurons; format: cell-based, rat; conditions: for neuroprotection when added for 15 minutes after OGD: FIGS. 31, 20, 22, 1 μM and 5 μM in FIG. 31; for neuroprotection when added post-in vitro ischemia/OGD: added after anaerobic incubation until experiment end (FIGS. 3b, 16, 17)
# Experimental: Establishment of cortical cultures was as previously described (Meloni et al. 2001). Briefly, cortical tissue from E18-E19 Sprague-Dawley rats was dissociated in Dulbecco's modified Eagle medium (DMEM; Invitrogen, Australia) supplemented with 1.3 mM L-cysteine, 0.9 mM NaHCOa, 10 units/ml papain (Sigma, USA) and 50 units/ml DNase (Sigma) and washed in cold DMEM/10% horse serum. Neurons were resuspended in Neurobasal (Invitrogen) containing 2% B27 supplement (B27; Invitrogen). Before seeding, 96-well sized glass wells (6 mm diameter, ProTech, Australia) or 96-well plastic plates (ProSciTech, Australia) were coated with poly-D-lysine overnight (50 ml/well: 50 mg/mL; 70-150 K, Sigma). Excess poly-D-lysine solution was then removed and replaced with Neurobasal (containing 2% B27; 4% fetal bovine serum; 1% horse serum; 62.5 mM glutamate; 25 mM 2-mercaptoethanol; and 30 mg/mL streptomycin and 30 mg/mL penicillin). Neurons were plated to obtain ≈10,000 viable neurons for each well on day in vitro 11-12. Neuronal cultures were maintained in a CO2 incubator (5% CO2, 95% air balance, 98% humidity) at 37° C. On day in vitro 4 one third of the culture medium was removed and replaced with fresh Neurobasal/2% B27 containing the mitotic inhibitor, cytosine arabinofuraNOside (1 mM final concentration; Sigma). On day in vitro 8 one half of the culture medium was replaced with Neurobasal/2% B27. Cultures were used on day in vitro 11 or 12 after which time they routinely consist of >97% neurons and 1-3% astrocytes (Meloni et al. 2001).
# The in vitro ischemia model used for primary cortical neuronal cultures was performed as previously described (Meloni et at 2011) Briefly, culture media was removed from wells (glass 96-well plate format) and washed with 315 μl of glucose free balanced salt solution (BSS; mM: 116 NaCl, 5.4 KCl, 1.8 CaCl2, 0.8 MgSO4, 1 NaH2PO4; pH 6.9) before the addition of 60 μl BSS containing cell penetrating or control peptides (see Table 1). A non-peptide positive control consisting of the glutamate receptor blockers (5 μM MK801/5 μM 6-cyano-7-nitroquinoxaline: MK801/CNQX) was also included. In vitro ischemia was initiated by placing wells in an anaerobic incubator (Don Whitely Scientific, England; atmosphere of 5% CO2, 10% H2 and 85% argon, 98% humidity) at 37° C. for 55 minutes. Upon removal from the anaerobic incubator, 60 μl of Neurobasal/2% N2 supplement was added to the wells and cultures incubated for a further 24 hours at 37° C. in the CO2 incubator. Control cultures received the same BSS wash procedures and media additions as ischemic treated cultures before incubation at 37° C. in the CO2 incubator.
# Control cultures underwent the same BSS wash procedures and media additions as OGD treated cultures.
# Twenty-four hours after insult, neuronal cultures were examined by light microscopy for qualitative assessment of neuronal cell viability. Neuronal viability was quantitatively measured by 3-(4,5,dimethyliazol-2-yl)-5-(3-carboxymethoxy-phenyl)-2-(4-sulfophenyl)-2H-tetrazolium salt (MTS) assay (Promega, Australia). The MTS assay measures the cellular conversion of the tetrazolium salt to a water-soluble brown formazan salt, which is detected spectrophotometrically at 490 nm. MTS absorbance data were converted to reflect proportional cell viability relative to both the untreated and treated controls, with the untreated control taken as 100% viability, and presented as mean±SEM. […] Viability data was analysed by ANOVA, followed by post-hoc Fischer's PLSD test, with P<0.05 values considered statistically significant. Four- to six wells were used in all assays.
# [2] = test system: permanent middle cerebral artery occlusion (MCAO) stroke model; test: Rat permanent middle cerebral artery occlusion (MCAO) stroke model; format: in vivo; conditions: for neuroprotective activity in vivo: 1 μmol/kg intravenously 30 min post-MCAO
# Experimental: Administration of peptide (DR9: rrrrrrrrr-NH2; R12, R15, R18, protamine sulphate; protamine) or vehicle (saline: 0.9% NaCl) treatment solution was performed at 30 min post-MCAO. The peptide treatment comprised DR9 in saline (600 μl) to provide an intravenous loading dose of 1 μmol/kg or 1000 nmol/kg given over 5-6 min via the right jugular vein.
# This study was approved by the Animal Ethics Committee of the University of Western Australia. Male Sprague Dawley rats weighing 270 g to 350 g were kept under controlled housing conditions with 12 hour light-dark cycle with free access to food and water. Experimental animals were fasted overnight and subjected to permanent middle cerebral artery occlusion (MCAO) as follows.
# Anaesthesia was induced with 4% isoflurane and a 2:1 mix of N2O and O2 via mask. Anaesthesia was maintained at 1.7-2% isoflurane. Cerebral blood flow (CBF) was monitored continuously using laser Doppler flowmetry (Blood FlowMeter, AD Instruments, Sydney, Australia). The probe was located 1 mm caudal and 4 mm lateral (right) to the bregma. A cannula was inserted in the right femoral artery to continuously monitor blood pressure and to provide samples for blood glucose and blood gas readings. Blood glucose was measured using a glucometer (MediSense Products, Abbott Laboratories, Bedford, Mass., USA) and blood gases were measured using a blood gas analyser (ABL5, Radiometer, Copenhagen, Denmark). Blood pressure was maintained at 80-100 mmHg. During surgery, rectal temperature was maintained at 37±0.5° C. and warming applied with a fan heater when necessary. For intravenous infusions, a length of PVC line primed with heparinised saline was tied in place in the right jugular vein, then externalised through a dorsal mid-scapular incision to a tether/swivel system (Instech Laboratories, Philadelphia, USA) designed to permit free movement.
# The right common carotid artery (CCA) was exposed via a ventral neck incision. […] The isolated section of the ECA was ligated and cauterised to create a stump. The carotid body was removed and the pterygopalatine artery was ligated. A 4-0 nylon monofilament with a 0.39 mm diameter silicone tip (Doccol, Redlands, Calif., USA) was inserted through the ECA stump into the CCA and advanced rostrally into the internal carotid artery (ICA) until the laser Doppler flowmetry recorded a >30% decrease from baseline of cerebral blood flow. The monofilament was secured in two places (at the base of the ECA stump and on the ICA) for the remainder of the experiment. Animals were given post-operative analgesia consisting of pethidine (3 mg/kg intramuscular) and bupivacaine (1.5 mg/kg subcutaneously) at head and leg incision sites.
# Post-surgery animals were allowed to recover in a climate-controlled chamber and their core body temperature monitored and maintained at 37±0.5° C. by a cooling/heating fan when required for 3-4 hours.
# Animals were sacrificed 24 hours post-MCAO with intra-peritoneal injections of sodium pentobarbitone (900 mg/kg). […] Slices were scanned and images were analysed by an operator blind to treatment status using ImageJ 3rd edition (NIH, USA). The total infarct volume was determined by adding the areas of infarcted tissue on both sides of the 2 mm sections. These measured areas were multiplied by half slice thickness (1 mm), and corrected for cerebral oedema by multiplying the ratio of affected to normal hemisphere areas. […]
Compound,neuroprotection when added for 15 minutes after OGD [1],"IC50 ([1]; Table 3, from FIG. 3a, peptide during ischemia and at 50% dose after, viability 24 h, MTS, read-out: IC50: In vitro ischemia model) [µM]",neuroprotection when added post-in vitro ischemia/OGD [1],neuroprotective activity in vivo [2],"efficacy at higher concentrations, added post-in vitro ischemia ([1]; FIG. 3b)","neuroprotection, peptide for 10 minutes, 1 to 3 hours prior to OGD ([1]; FIG. 32)","reduction of infarct volume (brain damage) ([2]; 1 μmol/kg IV 30 min post-MCAO, infarct volume 24 h post-MCAO (FIGS. 5, 27))"
N=C(N)NCCC[C@H](NC(=O)[C@H](CCCNC(=N)N)NC(=O)[C@H](CCCNC(=N)N)NC(=O)[C@H](CCCNC(=N)N)NC(=O)[C@H](CCCNC(=N)N)NC(=O)[C@H](CCCNC(=N)N)NC(=O)[C@H](CCCNC(=N)N)NC(=O)[C@H](CCCNC(=N)N)NC(=O)[C@@H](N)CCCNC(=N)N)C(=O)O [Peptide R9],not,6,displayed neuroprotective effects; also recorded: effective,possessed neuroprotective activity in vivo,,,
H-RRRRRRRRRRRRRRRRRR-OH [Peptide R18],Neuroprotection is displayed,,displayed neuroprotective effects; also recorded: effective,possessed neuroprotective activity in vivo,reduced efficacy,effective,approximately 20%

# — patent US20160250285A1, “NEUROPROTECTIVE PEPTIDES” (priority 2013, published 2016)
